For assay [1], the system named is L. braziliensis MHOM/BR/75/M209. Nature of the assay: Antileishmanial activity, L. braziliensis promastigotes (luciferase expressing strain). The class given is cell-based, Leishmania braziliensis. To be noted: Leishmania braziliensis. On the procedure: (§1) The antitrypanosomatid activity of the compounds was ascertained as follows. Leishmania parasites were cultured at 26 °C in SDM-79 medium supplemented with 10% fetal calf serum (FCS), and the antileishmanial activity was determined according to a previously published protocol for LUC-expressing and wild-type Leishmania ([Sereno et al., 2001], [Abbassi et al., 2008]). Trypanosoma brucei gambiense were grown at 26 °C in Cunningham's medium supplemented with 10% FCS, 2 mM GlutaMAX-1 (Gibco, USA), 100 U/ml penicillin, 100 μg/ml streptomycin and […] bovine hemin. The epimastigote form of Trypanosoma cruzi (strain Y cl7 scl2, lineage Tc2) (kindly provided by Philippe Truc and Christian Barnabé, UMR 177 IRD-CIRAD InterTryp, Montpellier, France) were grown at 26 °C in liver infusion tryptose (LIT) medium, supplemented with 10% FCS, 2 mM GlutaMAX™-I, 100 U/ml penicillin, 100 μg/ml streptomycin and bovine hemin (20 mg/l) (Gibco). The antitrypanosomatids activity was determined using a protocol that was initialy set up for wild-type Leishmania ([Abbassi et al., 2008]). To assess the drug activity on Toxoplasma gondii, confluent human foreskin fibroblast (HFF) monolayers were infected with YFP-type I Rh kindly provided by B. Striepen, see ([Striepen et al., 1998]) or Tomato-type II Pru kindly provided by N. Blanchard (Toulouse), expressing parasites at 5 × 10^4 per well, which were then centrifuged for 30 s at 1300 rpm and incubated for 30 min in a water bath at 37 °C to allow invasion. The wells were then washed three times with PBS to eliminate extracellular parasites, and the drugs were added at various concentrations ranging from 1 to 50 μM. After incubation for 24 h at 37 °C in a humidified atmosphere containing 5% CO2, the cells were fixed in 2.5% methanol-free formaldehyde (Tebu-bio)/PBS for 30 min at room temperature. Nuclei were stained with Hoechst 33258 (2 μg/ml, Molecular Probes) for 20 min and then washed three times with water for 10 min each time. The number of infected cells, i.e., cells harboring a parasitophorous vacuole, and the number of parasites per vacuole were determined using an Olympus ScanR microscope ( × 20 objective) and ScanR software. The parasitic index in % compared to the control was calculated as follows: (PI=((number of parasite/100 cells in treated wells) x (% of infected macrophage in treated well)/(number of parasite/100 cells in untreated wells) x (% of infected macrophage in untreated wells))*100).

The test system of assay [2] is T. brucei MHOM/CI/81/DAL967. Nature of the assay: Antitrypanosomal activity, T. brucei. The class given is cell-based, Trypanosoma brucei gambiense. The conditions noted are these: Trypanosoma brucei. On the procedure: as §1
A further assay relates to T. gondi RH-YFP. Nature of the assay: Anti-Toxoplasma activity in infected HFF monolayers, type I RH-YFP (parasitic index). The class given is cell-based, Toxoplasma gondii.
In assay [3] the test system is HeLa nuclear extract (HDAC 1, 2, 6, and 8 predominant). Nature of the assay: Fluorometric HDAC assay, HeLa nuclear extract. The class given is biochemical. Here is the method:
The HDACi effect against HeLa nuclear extracts and recombinant proteins were measured using a fluorometric HDAC assay kit (Active Motif, Belgium) according to the manufacturer's instructions. […] A negative control containing trichostatin A at a final concentration of 2 μM was analyzed for each independent experiment.

The target in the next assay is T1, HDAC 1 (Homo sapiens, UniProt Q13547).
T1 construct: purchased Active Motif, Belgium
T1 sequence (Q13547 whole entry): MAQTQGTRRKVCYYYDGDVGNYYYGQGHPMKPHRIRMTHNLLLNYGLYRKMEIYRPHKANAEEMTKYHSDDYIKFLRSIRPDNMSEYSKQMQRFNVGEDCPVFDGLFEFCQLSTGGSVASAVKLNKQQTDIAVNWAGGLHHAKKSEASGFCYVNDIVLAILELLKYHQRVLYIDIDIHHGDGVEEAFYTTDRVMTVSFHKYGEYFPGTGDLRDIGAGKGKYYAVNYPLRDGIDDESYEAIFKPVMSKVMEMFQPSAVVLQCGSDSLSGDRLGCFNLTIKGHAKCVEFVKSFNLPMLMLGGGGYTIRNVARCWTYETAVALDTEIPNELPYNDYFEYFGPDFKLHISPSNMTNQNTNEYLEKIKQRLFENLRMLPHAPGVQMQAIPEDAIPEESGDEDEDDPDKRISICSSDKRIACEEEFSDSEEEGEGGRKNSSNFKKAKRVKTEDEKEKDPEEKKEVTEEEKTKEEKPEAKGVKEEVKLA
Nature of the assay: Fluorometric HDAC assay, recombinant HDAC1. The assay is classed as biochemical. Here is the method: The HDACi effect against HeLa nuclear extracts and recombinant proteins were measured using a fluorometric HDAC assay kit (Active Motif, Belgium) according to the manufacturer's instructions. Briefly, 30 μL of HeLa nuclear extract (Active Motif, Belgium) or various HDAC recombinant proteins (Active Motif, Belgium) was mixed with 5 μL of a 10 × compound and 10 μL of assay buffer. A negative control containing trichostatin A at a final concentration of 2 μM was analyzed for each independent experiment. A fluorogenic substrate (10 μL) was added, and the reaction was allowed to proceed for 30 min at room temperature and then stopped by the addition of a developer containing trichostatin A. The fluorescence was monitored after 30 min at excitation and emission wavelengths of 360 and 460 nm, respectively.

Where only a bound is given, the exact number is not on record here.

Consider `COc1cccc(CC(=O)Nc2ccc(C(=O)NO)cc2)c1` [Compound 363, N-hydroxy-4-[2-(3-methoxyphenyl)acetamido]benzamide], for which the IC50 was > 60000 nM in assay [1]; > 60000 nM in assay [2]; 350 to 2250 nM with T. gondi RH-YFP (Toxoplasma gondii, read-out: anti-Toxoplasma activity IC50, range over strains, type I and type II strains together (abstract)); 85 ± 35 nM in assay [3] (HeLa nuclear extract, read-out: HDACi HeLa IC50); 257 ± 50 nM at HDAC 1 (recombinant protein, read-out: rHDAC 1 IC50). In addition, in the assay on T. gondi RH-YFP (IC50 HFF / IC50 T. gondi RH-YFP), the “IS^a selectivity index for T. gondi” value is 300. Moreover, the “selectivity index, range over human cell lines” value in the assay with T. gondi RH-YFP (using different human cell lines) is on record as 10–300. Further, the “HDACi effect, inhibition at single concentration” value in assay [3] (1.0 μM, screen on HeLa nuclear extract and recombinant HDAC1, 3, 6, 8 (Fig. 2A)) was 90%. For the same compound, on HDAC 1 (363 as compared to SAHA), the “Fold, HDAC 1” value is 2.43.

In general, IC50 refers to the midpoint of a concentration-inhibition curve.
